# What was measured:
# [1] = target: PIM (PIM-1, PIM-2, and/or PIM-3); test: PIM-1, PIM-2 and PIM-3 inhibition, biochemical chemiluminescence assays (Kinase Glo, IC50 determination); conditions: Table 1 activity class; PIM refers to PIM-1, PIM-2, and/or PIM-3; read-out: PIM IC50 (Activity B)
# Experimental: (§1) The IC50 evaluation of compounds against the PIM-1 oncogene was performed in a Chemiluminesence assay utilizing a Greiner 384-well white medium binding white plate format. […] Following an incubation period of 120 minutes at ambient temperature (24-27° C.), 10 μL of Kinase Glo (Promega) was added. The luminescence was measured following a Luminescence Protocol on a Victor plate reader.
# as §1, with “PIM-2” for “PIM-1”, “format. […] The assay procedure involves compound dilution followed by addition of 3 nM PIM-2 to the designated well plates and subsequent pre-incubation of the compounds with the enzyme for 30 minutes at ambient temperature (24-27° C.).” for “format.”
# as §1, with “PIM-3 Oncogene” for “PIM-1 oncogene”
# CK2 = CK2 (Homo sapiens, UniProt P68400); test: CK2 inhibition, biochemical chemiluminescence holoenzyme assay (Kinase Glo, IC50 determination); conditions: Table 1 activity class; symbol given only if active; read-out: CK2 IC50 (Activity C)
# CK2, sequence (P68400 whole entry): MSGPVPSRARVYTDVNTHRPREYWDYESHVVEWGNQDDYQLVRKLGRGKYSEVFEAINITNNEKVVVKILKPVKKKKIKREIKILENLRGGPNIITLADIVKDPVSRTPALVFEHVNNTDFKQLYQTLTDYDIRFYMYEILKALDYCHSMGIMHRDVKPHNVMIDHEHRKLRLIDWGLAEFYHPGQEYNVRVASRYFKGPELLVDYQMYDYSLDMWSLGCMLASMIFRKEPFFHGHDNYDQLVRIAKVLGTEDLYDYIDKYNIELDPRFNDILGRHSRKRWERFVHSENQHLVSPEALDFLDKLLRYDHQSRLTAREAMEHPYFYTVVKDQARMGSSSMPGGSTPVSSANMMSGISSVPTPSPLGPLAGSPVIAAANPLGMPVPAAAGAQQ
# CK2, sequence (P67870 whole entry partner): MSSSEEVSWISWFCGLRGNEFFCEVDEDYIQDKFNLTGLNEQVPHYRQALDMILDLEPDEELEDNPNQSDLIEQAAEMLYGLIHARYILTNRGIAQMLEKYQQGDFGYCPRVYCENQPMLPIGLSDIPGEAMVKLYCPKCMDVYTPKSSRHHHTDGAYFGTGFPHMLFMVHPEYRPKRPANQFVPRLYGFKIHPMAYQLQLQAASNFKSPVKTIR
# Experimental: Characterization of CK2 Inhibition in a Biochemical Chemiluminesence Assay (IC50 Determination):
# The IC50 evaluation of compounds against CK2 was performed in a Chemiluminesence Holoenzyme assay utilizing a Greiner 384-well white medium binding white plate format. […] The assay procedure involves the compound dilution scheme followed by addition of 10 μL of the substrate twice, followed by 10 μL twice of the respective enzyme or buffer to the designated well plates and subsequent pre-incubation of the compounds. Following an incubation period of 150 minutes at ambient temperature (24-27° C.), 10 μL of Kinase Glo (Promega) was added. The luminescence was measured following a Luminescence Protocol on a Victor plate reader.
Structure (SMILES),IC50 [1] [µM],IC50 (CK2) [µM]
"CN1CCN(c2ccc(NCc3nc4c(oc5ccc(Br)cc54)c(=O)[nH]3)cc2)CC1 [Compound 75, 8-bromo-2-({[4-(4-methylpiperazin-1-yl)phenyl]amino}methyl)[1]benzofuro[3,2-d]pyrimidin-4(3H)-one]",< 10,< 10
"Nc1ncc(Cl)c(-c2nc3c(oc4ccc(Br)cc43)c(=O)[nH]2)n1 [Compound 243, 2-(2-amino-5-chloropyrimidin-4-yl)-8-bromo[1]benzofuro[3,2-d]pyrimidin-4(3H)-one]",< 10,< 10
"CN(C)CCCNc1nc2c(oc3ccc(Br)cc32)c(=O)[nH]1 [Compound 193, 8-bromo-2-{[3-(dimethylamino)propyl]amino}[1]benzofuro[3,2-d]pyrimidin-4(3H)-one]",< 10,< 10
"O=C(Nc1ccc(-c2nc3c(oc4ccc(Br)cc43)c(=O)[nH]2)c(Cl)c1)c1ccccc1 [Compound 249, N-[4-(8-bromo-4-oxo-3,4-dihydro[1]benzofuro[3,2-d]pyrimidin-2-yl)-3-chlorophenyl]benzamide]",< 10,< 10
"O=C(Nc1ccc(-c2nc3c(oc4ccc(Br)cc43)c(=O)[nH]2)c(Cl)c1)c1ccc(Cl)cc1 [Compound 279, N-[4-(8-bromo-4-oxo-3,4-dihydro[1]benzofuro[3,2-d]pyrimidin-2-yl)-3-chlorophenyl]-4-chlorobenzamide]",< 10,< 10
"CN1CCN(CC(C)(C)NCc2nc3c(oc4ccc(Br)cc43)c(=O)[nH]2)CC1 [Compound 212, 8-bromo-2-({[1,1-dimethyl-2-(4-methylpiperazin-1-yl)ethyl]amino}methyl)[1]benzofuro[3,2-d]pyrimidin-4(3H)-one]",< 10,< 10
"O=C(Nc1ccc(-c2nc3c(oc4ccc(Br)cc43)c(=O)[nH]2)c(Cl)c1)c1cnc2ccccc2n1 [Compound 397, N-[4-(8-bromo-4-oxo-3,4-dihydro[1]benzofuro[3,2-d]pyrimidin-2-yl)-3-chlorophenyl]quinoxaline-2-carboxamide]",< 10,< 10
"CC(=O)N1CCC(c2nc3c(oc4ccc(Br)cc43)c(=O)[nH]2)CC1 [Compound 203, 2-(1-acetylpiperidin-4-yl)-8-bromo[1]benzofuro[3,2-d]pyrimidin-4(3H)-one]",< 10,< 10
"CCN(CC)CC(=O)N1CCN(c2nc3c(oc4ccc(Br)cc43)c(=O)[nH]2)CC1 [Compound 245, 8-bromo-2-[4-(N,N-diethylglycyl)piperazin-1-yl][1]benzofuro[3,2-d]pyrimidin-4(3H)-one]",< 10,< 10
"COc1ccc2oc3c(=O)[nH]c(-c4ccc(NCC5CCN(C(=O)OC(C)(C)C)CC5)cc4Cl)nc3c2c1 [Cpd 137, 1,1-dimethylethyl 4-[({3-chloro-4-[8-(methyloxy)-4-oxo-3,4-dihydro[1]benzofuro[3,2-d]pyrimidin-2-yl]phenyl}amino)methyl]piperidine-1-carboxylate]",,< 10
"COc1ccc2oc3c(=O)[nH]c(-c4ccc(N)cc4Cl)nc3c2c1 [Cpd 129, 2-(4-amino-2-chlorophenyl)-8-(methyloxy)[1]benzofuro[3,2-d]pyrimidin-4(3H)-one]",,< 10
"CN1CCN(Cc2nc3c(nc4ccc(Br)cn43)c(=O)[nH]2)CC1 [Compound 417, 8-bromo-2-[(4-methylpiperazin-1-yl)methyl]pyrido[1,2-e]purin-4(3H)-one]",< 10,
"O=C(Nc1ccc(Cl)c(-c2nc3c(oc4ccc(Br)cc43)c(=O)[nH]2)c1)c1cccnc1 [Compound 327, N-[3-(8-bromo-4-oxo-3,4-dihydro[1]benzofuro[3,2-d]pyrimidin-2-yl)-4-chlorophenyl]pyridine-3-carboxamide]",< 10,
"CN(C)CCN1CCN(Cc2nc3c(oc4ccc(Br)cc43)c(=O)[nH]2)CC1 [Compound 81, 8-bromo-2-({4-[2-(dimethylamino)ethyl]piperazin-1-yl}methyl)[1]benzofuro[3,2-d]pyrimidin-4(3H)-one]",< 10,

# Continued, values first:
IC50 [1] [µM],IC50 (CK2) [µM],Structure (SMILES)
< 10,< 10,"Cc1ccc2oc3c(=O)[nH]c(CN4CC[C@H](O)C4)nc3c2c1[N+](=O)O [Compound 424, hydroxy(2-{[(3S)-3-hydroxypyrrolidin-1-yl]methyl}-8-methyl-4-oxo-3,4-dihydro[1]benzofuro[3,2-d]pyrimidin-9-yl)oxoammonium]"
< 10,< 10,"O=c1[nH]c(CN2CC[C@H](O)C2)nc2c1oc1ccc(OCc3ccccc3)cc12 [Compound 475, 2-{[(3S)-3-hydroxypyrrolidin-1-yl]methyl}-8-[(phenylmethyl)oxy][1]benzofuro[3,2-d]pyrimidin-4(3H)-one]"
< 10,< 10,"O=c1[nH]c(CN2CCOCC2)nc2c1oc1ccc(Br)cc12 [Compound 24, 8-bromo-2-(morpholin-4-ylmethyl)[1]benzofuro[3,2-d]pyrimidin-4(3H)-one]"
< 10,< 10,"O=c1[nH]c(CN2CC[C@H](O)C2)nc2c1oc1ccc(NCCc3cccc(F)c3)cc12 [Compound 472, 8-{[2-(3-fluorophenyl)ethyl]amino}-2-{[(3S)-3-hydroxypyrrolidin-1-yl]methyl}[1]benzofuro[3,2-d]pyrimidin-4(3H)-one]"
< 10,< 10,"CN1CCN(c2ccc(COCc3nc4c(oc5ccc(Br)cc54)c(=O)[nH]3)cc2)CC1 [Compound 102, 8-bromo-2-[({[4-(4-methylpiperazin-1-yl)phenyl]methyl}oxy)methyl][1]benzofuro[3,2-d]pyrimidin-4(3H)-one]"
< 10,< 10,"CC(=O)N[C@H]1CCN(Cc2nc3c(oc4ccc(Br)cc43)c(=O)[nH]2)C1 [Compound 365, N-{(3S)-1-[(8-bromo-4-oxo-3,4-dihydro[1]benzofuro[3,2-d]pyrimidin-2-yl)methyl]pyrrolidin-3-yl}acetamide]"
< 10,< 10,"O=C(c1ccccc1)N1CCC(c2nc3c(oc4ccc(Br)cc43)c(=O)[nH]2)CC1 [Compound 234, 8-bromo-2-[1-(phenylcarbonyl)piperidin-4-yl][1]benzofuro[3,2-d]pyrimidin-4(3H)-one]"
< 10,< 10,"COc1ccc(CCNc2ccc3oc4c(=O)[nH]c(CN5CC[C@H](O)C5)nc4c3c2)cc1OC [Compound 474, 8-({2-[3,4-bis(methyloxy)phenyl]ethyl}amino)-2-{[(3S)-3-hydroxypyrrolidin-1-yl]methyl}[1]benzofuro[3,2-d]pyrimidin-4(3H)-one]"
,< 10,"O=c1[nH]c(CNc2cccc(F)c2)nc2c1oc1ccc(Br)cc12 [Compound 12, 8-bromo-2-{[(3-fluorophenyl)amino]methyl}[1]benzofuro[3,2-d]pyrimidin-4(3H)-one]"
< 10,,"C[C@@H]1CN(Cc2nc3c(oc4ccc(Br)cc43)c(=O)[nH]2)C[C@H](C)N1 [Compound 296, 8-bromo-2-{[(3R,5S)-3,5-dimethylpiperazin-1-yl]methyl}[1]benzofuro[3,2-d]pyrimidin-4(3H)-one]"
< 10,,"O=c1[nH]c(CN2CCN(c3cccc(Cl)c3)CC2)nc2c1oc1ccc(Br)cc12 [Compound 278, 8-bromo-2-{[4-(3-chlorophenyl)piperazin-1-yl]methyl}[1]benzofuro[3,2-d]pyrimidin-4(3H)-one]"
